Key:
Format in all cases: in vivo
[1] = tested on: Abutilon theophrasti (ABUTH); test: Post-emergence herbicidal action, greenhouse pot test; conditions: rated visually after about 3 weeks vs untreated controls, 100% = plants have died
In short: (§1)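 Activity was scored by eye about 3 weeks after treatment against untreated plants, where 100% means dead plants and 0% means no difference. Plants at the one-leaf stage received a foliar spray of WP or EC formulations in water plus 0.5% additive (600 l/ha, up to 20 g/ha). Plants were grown in sandy loam pots in a greenhouse for 2–3 weeks before spraying.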

[2] = tested on: Amaranthus retroflexus (AMARE); test: as above; conditions: rated visually after about 3 weeks vs untreated controls, 100% = plants have died
In short: as §1

[3] = tested on: Pharbitis purpurea (PHBPU); test: as above
In short: as §1

[4] = tested on: Polygonum convolvulus (POLCO); test: as above
In short: as §1

Stellaria media (STEME) = test: as above
In short: as §1

Veronica persica (VERPE) = test: as above
In short: as §1

Viola tricolor (VIOTR) = test: as above
In short: as §1

[5] = tested on: Alopecurus myosuroides (ALOMY); test: Post-emergence herbicidal action, greenhouse pot test (also comparative test C); conditions: rated visually after about 3 weeks vs untreated controls, 100% = plants have died
In short: (§2)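 Greenhouse pot plants in sandy loam were sprayed post-emergence at the one-leaf stage (2–3 weeks after sowing) with WP or EC formulations plus 0.5% additive at 600 l/ha water. Activity was rated visually after about 3 weeks versus untreated controls (100% = dead, 0% = like control); rates were 20 g/ha or less, and 5 g/ha or less in the comparative test.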

[6] = tested on: Echinochloa crus-galli (ECHCG); test: as above
In short: as §2

[7] = tested on: Matricaria inodora (MATIN); test: as above
In short: as §2

Setaria viridis (SETVI) = test: as above; conditions: for Post-emergence action against SETVI: 20 g/ha
In short: as §2

Glycine max (GLXMA) = test: Post-emergence crop plant compatibility, greenhouse pot test
In short: (§3)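 Greenhouse pot test; post-emergence foliar spray at one-leaf stage, WP or EC in water + 0.5% additive, 600 l/ha. Visual rating after ~3 wk, % relative to untreated (0–100%).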

[8] = tested on: Triticum aestivum (TRZAS); test: as above; conditions: 1.25 g/ha, vs untreated controls
In short: as §3

Zea mays (ZEAMX) = test: as above; conditions: vs untreated controls
In short: as §3

Oryza sativa (ORYSA) = test: Post-emergence crop plant compatibility, greenhouse pot test (also comparative test C); conditions: for Post-emergence action against ORYSA (crop plant compatibility): vs untreated controls
In short: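 Visual damage versus untreated plants (0% = like control, 100% = plants died) was scored about 3 weeks after a post-emergence spray in greenhouse pots. Treatment: one-leaf stage, WP or EC in water at 600 l/ha with 0.5% additive; a/b/c mark different dosages on the same crop.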

Avena fatua (AVEFA) = test: Post-emergence herbicidal action, greenhouse pot test; conditions: rated visually after about 3 weeks vs untreated controls, 100% = plants have died
In short: as §1

| SMILES | Post-emergence action at 1.25 g/ha against ABUTH in % [1] | Post-emergence action at 5 g/ha against ABUTH in % [1] | Post-emergence action at 20 g/ha against ABUTH in % [1] | Post-emergence action at 1.25 g/ha against AMARE in % [2] | Post-emergence action at 5 g/ha against AMARE in % [2] | Post-emergence action at 20 g/ha against AMARE in % [2] | Post-emergence action against PHBPU in % ([3]; dosage 1.25 g/ha) | Post-emergence action against PHBPU in % ([3]; dosage 5 g/ha) | Post-emergence action against PHBPU in % ([3]; dosage 20 g/ha) | Post-emergence action against POLCO in % ([4]; dosage 20 g/ha) | Post-emergence action against VERPE (Veronica persica (VERPE); 1.25 g/ha) | Post-emergence action against VERPE (Veronica persica (VERPE); 5 g/ha) | Post-emergence action against VERPE (Veronica persica (VERPE); 20 g/ha) | Post-emergence action against VIOTR (Viola tricolor (VIOTR); 1.25 g/ha) | Post-emergence action against VIOTR (Viola tricolor (VIOTR); 5 g/ha) | Post-emergence action against VIOTR (Viola tricolor (VIOTR); 20 g/ha) | Post-emergence action at 20 g/ha against ALOMY in % [5] | Post-emergence action against ECHCG in % ([6]; dosage 20 g/ha) | Post-emergence action against MATIN in % ([7]; dosage 5 g/ha) | Post-emergence action against MATIN in % ([7]; dosage 20 g/ha) | other results |
| --- | --- | --- | --- | --- | --- | --- | --- | --- | --- | --- | --- | --- | --- | --- | --- | --- | --- | --- | --- | --- | --- |
| Cn1c(C(F)(F)F)cc(=O)n(-c2cc(Sc3ccccc3OCC(=O)OCC3CCOC3)c(Cl)cc2F)c1=O (racemic) [I.1-72] | 100% | 100% | 100% | 80% | 100% | 100% | 80% | 100% | 100% | 100% | 100% | 100% | 100% | 100% | 100% | 100% | 80% | 100% | 90% | 100% | Post-emergence action against POLCO in % ([4]; dosage 1.25 g/ha): 80%; Post-emergence action against POLCO in % ([4]; dosage 5 g/ha): 100%; Post-emergence action against STEME (Stellaria media (STEME); 5 g/ha): 100%; Post-emergence action against STEME (Stellaria media (STEME); 20 g/ha): 100%; Post-emergence action against SETVI (Setaria viridis (SETVI)): 100%; Post-emergence action against SETVI in % (Setaria viridis (SETVI); dosage 1.25 g/ha): 100%; Post-emergence action against SETVI in % (Setaria viridis (SETVI); dosage 5 g/ha): 100%; Post-emergence action against GLXMA in % (Glycine max (GLXMA); 1.25 g/ha): 10%; Post-emergence action against GLXMA in % (Glycine max (GLXMA); 5 g/ha): 20%; Post-emergence action against TRZAS (crop plant compatibility) [8]: 20%; Post-emergence action against ZEAMX (crop plant compatibility) (Zea mays (ZEAMX); 1.25 g/ha): 10%; Post-emergence action against ZEAMX (crop plant compatibility) (Zea mays (ZEAMX); 5 g/ha): 20%; Post-emergence action against ORYSA (crop plant compatibility) (Oryza sativa (ORYSA); 1.25 g/ha): 10%; Post-emergence action against ORYSA (crop plant compatibility) (Oryza sativa (ORYSA); 5 g/ha): 20% |
| Cn1c(C(F)(F)F)cc(=O)n(-c2cc(Oc3ccccc3OCC(=O)OCc3ccccn3)c(C#N)cc2F)c1=O [I.9-276] | 100% | 100% | 100% | 100% | 100% | 100% | 100% | 100% | 100% | 100% | 80% | 100% | 100% | 100% | 100% | 100% | 100% | 100% | 100% | 100% | Post-emergence action at 5 g/ha against AVEFA in % (Avena fatua (AVEFA); 5 g/ha): 80%; Post-emergence action at 20 g/ha against AVEFA in % (Avena fatua (AVEFA); 20 g/ha): 90%; Post-emergence action at 5 g/ha against ALOMY in % ([5]; 5 g/ha): 100%; Post-emergence action against ECHCG in % ([6]; dosage 5 g/ha): 100%; Post-emergence action against SETVI (Setaria viridis (SETVI)): 100%; Post-emergence action against SETVI in % (Setaria viridis (SETVI); dosage 1.25 g/ha): 100%; Post-emergence action against SETVI in % (Setaria viridis (SETVI); dosage 5 g/ha): 100%; Post-emergence action against GLXMA in % (Glycine max (GLXMA); 1.25 g/ha): 0%; Post-emergence action against TRZAS (crop plant compatibility) [8]: 0%; Post-emergence action against ZEAMX (crop plant compatibility) (Zea mays (ZEAMX); 1.25 g/ha): 0%; Post-emergence action against ZEAMX (crop plant compatibility) (Zea mays (ZEAMX); 5 g/ha): 0%; Post-emergence action against ZEAMX (crop plant compatibility) (Zea mays (ZEAMX); 20 g/ha): 20%; Post-emergence action against ORYSA (crop plant compatibility) (Oryza sativa (ORYSA); 1.25 g/ha): 0%; Post-emergence action against ORYSA (crop plant compatibility) (Oryza sativa (ORYSA); 5 g/ha): 0%; Post-emergence action against ORYSA in % (Oryza sativa (ORYSA); 20 g/ha, crop plant compatibility): 0% |

— patent US20240025862A1, “SUBSTITUTED N-PHENYLURACILS AND SALTS THEREOF, AND USE THEREOF AS HERBICIDAL ACTIVE SUBSTANCES” (Bayer Aktiengesellschaft, priority 2020, published 2024)
